Assay results published in patent US20140357512A1, “HISTONE DEACETYLASE (HDAC) BIOMARKERS IN MULTIPLE MYELOMA” (priority 2013, published 2014).

System: human myeloma cell line MM.1S
Experiment: SILAC acetylated-lysine peptide profiling, HDAC inhibitor vs DMSO (light/heavy ratio)
Assay type: cell-based
From the text: An embodiment of the invention comprises utilizing the SILAC method in order to quantitate changes in protein expression between two or more populations of cells. The SILAC method is a technique based on mass spectrometry that detects differences in protein abundance among samples using non-radioactive isotopic labeling. The SILAC method is known in the art, and described in detail in Ong et al., “Stable Isotope Labeling by Amino Acids in Cell Culture, SILAC, as a Simple and Accurate Approach to Expression Proteomics”, Molecular & Cellular Proteomics, vol. 1, pp. 376-386 (2002), which is incorporated herein by reference in its entirety.
Briefly, the SILAC method involves growing two populations of cells in cell culture. The first population of cells is grown in growth media containing normal amino acids (“normal media”). The second population of cells is grown in media lacking a standard essential amino acid (such as lysine), but is then supplemented with a non-radioactive, isotopically labeled form of that essential amino acid (such as lysine labeled with ^13C atoms, rather than normal ^12C atoms), which is called “heavy media”. When the two populations of cells are each growing in the medium, they incorporate the amino acids into all of their proteins. The growth of cells maintained in the heavy media is no different from that in normal media. All peptides containing the heavy amino acids are heavier than their normal counterparts. The cells from each of the two populations of cells are lysed. The lysates from each of the two cell populations are then combined. The combined cell lysates are then analyzed by mass spectrometry. Pairs of chemically identical peptides of different stable isotope composition can be differentiated in a mass spectrometer due to their difference in mass. The ratio of peak intensities in the mass spectrum for such peptide pairs reflects the abundance ratio for the two proteins.
This example describes SILAC studies that were performed to compare the effects of three different HDAC inhibitors (Compound A, Compound B, and tubastatin A) to a control on a human multiple myeloma cell line. The HDAC inhibitors were also compared amongst themselves to determine differences in their effects.
A human myeloma cell line MM.1S was grown using either ^12C (light) or ^13C (heavy) lysine containing culture medium. The “heavy” cells were treated with DMSO as the control, and the “light” cells were treated with a single HDAC inhibitor at 37° C. for 6 hours. The heavy and light cells were lysed, and the lysates were mixed in 1:1 ratio and digested with the protease trypsin. The acetylated lysine containing peptides (due to the action of the HDAC inhibitor) in the digested peptide pool were captured by a non-specific anti-acetylated lysine antibody cocktail (the antibodies identify both light and heavy acetylated peptides), and subjected to mass spectrometry analysis in order to identify thousands of individual peptides.
Thousands of peptides were identified in pairs (^12C and ^13C) due to their known mass differences. The amino acid sequence and quantitative ratio (Light/Heavy) of a given peptide in two differentially treated cell lysates were then determined and annotated with their possible protein (gene) sources.
As stated above, three HDAC inhibitors (Compound A, Compound B, and Tubastatin A) were used. Thus, the SILAC method was performed three times, with a different HDAC inhibitor compared to a control each time. Accordingly, there are three pairs of quantitative data in the table below, i.e., Compound A:DMSO, Compound B:DMSO, and Tubastatin A:DMSO. A cut-off of 1.30 fold of change (increase or decrease) was then used to determine “changed” or “+” in the table, and any peptides with a fold of change less than 1.3 fold were determined to be “unchanged” or “0” in the table. Those peptides that were not identified were marked as “NA” in the table. […]

Structure (SMILES): O=C(NO)c1cnc(NC2(c3cccc(F)c3)CCCCC2)nc1 [Compound B, 2-((1-(3-fluorophenyl)cyclohexyl)amino)-N-hydroxypyrimidine-5-carboxamide]
- L/H ratio of acetylated peptide ([…](ac)HLSASQK (SEQ ID NO: 381), Cytochrome c oxidase subunit 4 isoform 1 mitochondrial [53], COX4I1): −0.63 log 2
- light to heavy ratio (L/H ratio) of acetylated peptide, log 2 scale ([…](ac)IFK (SEQ ID NO: 157), cDNA FLJ59630 highly similar to Growth hormone-inducible transmembrane protein [76], GHITM): 0.00
- light to heavy ratio (L/H ratio) of acetylated peptide, log 2 scale ([…](ac)IVIQK (SEQ ID NO: 165), Isoform A1-B of Heterogeneous nuclear ribonucleoprotein A1 [161], HNRNPA1): 0.00
- light to heavy ratio (L/H ratio) of acetylated peptide, log 2 scale ([…](ac)K (SEQ ID NO: 242), Vimentin [235], VIM): 0.00
- L/H ratio of acetylated peptide ([…](ac)K (SEQ ID NO: 427), Profilin-1 [126], PFN1): 0.58 log 2
- light to heavy ratio (L/H ratio) of acetylated peptide, log 2 scale ([…](ac)LFR (SEQ ID NO: 136), B-cell receptor-associated protein 31 [95], BCAP31): 0.00
- L/H ratio of acetylated peptide ([…](ac)LHIVK (SEQ ID NO: 378), Chloride intracellular channel protein 4 [194], CLIC4): 0.51 log 2
- light to heavy ratio (L/H ratio) of acetylated peptide, log 2 scale ([…](ac)LLPHIR (SEQ ID NO: 208), 60S acidic ribosomal protein P0 [77], RPLP0): 0.00
- L/H ratio of acetylated peptide ([…](ac)VNSK (SEQ ID NO: 430), Isoform 1 of Inorganic pyrophosphatase 2 mitochondrial [69], PPA2): 0.91 log 2
- L/H ratio of acetylated peptide ([…](ac)WK (SEQ ID NO: 453), Lupus La protein [328], SSB): 0.57 log 2
- L/H ratio of acetylated peptide ([…](ac)YLNFVK (SEQ ID NO: 405), Endoplasmin [428], HSP90B1): 0.77 log 2
- L/H ratio of acetylated peptide ([…](ac)YQEALAK (SEQ ID NO: 450), Superoxide dismutase [Mn] mitochondrial [68], SOD2): −0.67 log 2
- light to heavy ratio (L/H ratio) of acetylated peptide, log 2 scale ([…](ac)[…] (SEQ ID NO: 132), ATP synthase subunit b mitochondrial [221], ATP5F1): 0.00
- light to heavy ratio (L/H ratio) of acetylated peptide, log 2 scale ([…](ac)[…] (SEQ ID NO: 139), cDNA FLJ55574 highly similar to Calnexin [217], CANX): 0.00
- light to heavy ratio (L/H ratio) of acetylated peptide, log 2 scale ([…](ac)[…] (SEQ ID NO: 145), Isoform 1 of Cellular nucleic acid-binding protein [118], CNBP): 0.00
- L/H ratio of acetylated peptide ([…](ac)[…] (SEQ ID NO: 372), Calreticulin [98], CALR): −0.43 log 2
- L/H ratio of acetylated peptide ([…](ac)[…] (SEQ ID NO: 387), D-dopachrome decarboxylase [87], DDT): −0.44 log 2
- L/H ratio of acetylated peptide ([…](ac)[…] (SEQ ID NO: 399), Guanine nucleotide-binding protein subunit beta-2-like 1 [139], GNB2L1): 0.54 log 2
- L/H ratio of acetylated peptide ([…](ac)[…] (SEQ ID NO: 408), Isoform 1 of Isocitrate dehydro-genase [NAD] subunit alpha mitochondrial [77], IDH3A): −0.44 log 2
- L/H ratio of acetylated peptide ([…](ac)[…] (SEQ ID NO: 455), Isoform 1 of Translocon-associated protein subunit alpha [102], SSR1): −0.88 log 2
- L/H ratio of acetylated peptide ([…](ac)[…] (SEQ ID NO: 466), Voltage-dependent anion-selective channel protein 1 [266], VDAC1): −0.66 log 2
- L/H ratio of acetylated peptide ([…](ac)[…] (SEQ ID NO: 469), Isoform 1 of Voltage-dependent anion-selective channel protein 3 [266], VDAC3): −0.71 log 2
- light to heavy ratio (L/H ratio) of acetylated peptide YDGK(ac)WEVEEMK (SEQ ID NO: 274) (cDNA FLJ55574 highly similar to Calnexin [138], CANX, drug:DMSO): 0.00 log 2
- light to heavy ratio (L/H ratio) of acetylated peptide LNK(ac)PFLFDTK (SEQ ID NO: 327) (cDNA FLJ55574 highly similar to Calnexin [172], CANX, drug:DMSO): 0.43 log 2
- light to heavy ratio (L/H ratio) of acetylated peptide NFK(ac)SISK (SEQ ID NO: 356) (cDNA FLJ56425 highly similar to Very-long-chain specific acyl-CoAdehydrogenase mitochondrial [681], ACADVL, drug:DMSO): 0.44 log 2
- light to heavy ratio (L/H ratio) of acetylated peptide LPSSTK(ac)SGWPR (SEQ ID NO: 500) (cDNA FLJ75110 highly similar to Homo sapiens PHD finger protein 15 (PHF15) mRNA [38], gene PHF15, inhibitor:DMSO): 0.00 log 2
- light to heavy ratio (L/H ratio) of acetylated peptide IINEVSK(ac)[…] (SEQ ID NO: 341) (cDNA FLJ77177 highly similar to Homo sapiens arginine-rich mutated in early stage tumors (ARMET) mRNA [97], MANF, drug:DMSO): −0.58 log 2
- light to heavy ratio (L/H ratio) of acetylated peptide TNVPVK(ac)LFAR (SEQ ID NO: 348) (cDNA FLJ77422 highly similar to Homo sapiens RNA binding protein autoantigenic (hnRNP-associated with lethal yellow homolog (mouse)) transcript variant 1 mRNA (Fragment) [165], RALY, drug:DMSO): 0.39 log 2
- light to heavy ratio (L/H ratio) of acetylated peptide EIAQEFK(ac)TDLR (SEQ ID NO: 337) (histone cluster 2 H3 pseudogene 2 [80], HIST2H3PS2, drug:DMSO): −0.49 log 2
- light to heavy ratio (L/H ratio) of acetylated peptide SK(ac)SDPIMLLK (SEQ ID NO: 255) (pyruvate dehydrogenase E1 component subunit alpha somatic form mitochondrial isoform 2 precursor [351], PDHA1, drug:DMSO): 0.00 log 2
- light to heavy ratio (L/H ratio) of acetylated peptide VTNLLMLK(ac)GK (SEQ ID NO: 350) (regulator of differentiation 1 isoform 2 [64], ROD1, drug:DMSO): 0.83 log 2
- light to heavy ratio (L/H ratio) of acetylated peptide LTSLNVK(ac)YNNDK (SEQ ID NO: 590) (regulator of differentiation 1 isoform 2 [236], gene ROD1, inhibitor:DMSO): 0.00 log 2
- light to heavy ratio (L/H ratio) of acetylated peptide GWLK(ac)[…] (SEQ ID NO: 278) (triosephosphate isomerase isoform 2 [231], TPI1, TPI1P1, drug:DMSO): 0.00 log 2
